Laboratory results published in PubChem BioAssay AID248 (DTP/NCI, 2004).
“And” between values parts separate entries of the source, which are not always exact repeats. Equal entries are not always repeated. Toxic doses and inconclusive results are not listed. Cut-off read from the data, not from the text of the source: active = T/C of 150% or more; inactive = T/C below 125%.

System: L1210 leukemia ip in BDF1 mice, survival T/C
Assay: NCI In Vivo Anticancer Drug Screen. Data for tumor model L1210 Leukemia (intraperitoneal) in B6D2F1 (BDF1) mice
Settings: endpoint: mean survival time, higher = longer survival
In short: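 Value reflects the ratio of survival in compound-treated mice to survival in vehicle-treated controls, with both groups carrying the same transplanted tumor.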

[1] = dose: 100.0 mg/kg/injection, schedule: Q04DX003 (ip), vehicle: Klucel (hydroxypropylcellulose) (HPC)
[2] = dose: 200.0 mg/kg/injection, schedule: Q04DX003 (ip), vehicle: Klucel (hydroxypropylcellulose) (HPC)
[3] = dose: 400.0 mg/kg/injection, schedule: Q04DX003 (ip), vehicle: Klucel (hydroxypropylcellulose) (HPC)
[4] = dose: 50.0 mg/kg/injection, schedule: Q01DX009 (ip), vehicle: saline with Tween-80
[5] = dose: 100.0 mg/kg/injection, schedule: Q01DX009 (ip), vehicle: saline with Tween-80
[6] = dose: 100.0 mg/kg/injection, schedule: Q04DX003 (ip), vehicle: saline with Tween-80
[7] = dose: 200.0 mg/kg/injection, schedule: Q01DX009 (ip), vehicle: saline with Tween-80
[8] = dose: 400.0 mg/kg/injection, schedule: Q01DX009 (ip), vehicle: saline with Tween-80
[9] = dose: 100.0 mg/kg/injection, schedule: Q01DX009 (ip), vehicle: Klucel (hydroxypropylcellulose) (HPC)
[10] = dose: 200.0 mg/kg/injection, schedule: Q01DX009 (ip), vehicle: Klucel (hydroxypropylcellulose) (HPC)
[11] = dose: 200.0 mg/kg/injection, schedule: Q04DX003 (ip), vehicle: saline with Tween-80
[12] = dose: 400.0 mg/kg/injection, schedule: Q01DX009 (ip), vehicle: Klucel (hydroxypropylcellulose) (HPC)
[13] = dose: 100.0 mg/kg/injection, schedule: Q01DX001 (ip), vehicle: carboxymethylcellulose (CMC)
[14] = dose: 200.0 mg/kg/injection, schedule: Q01DX001 (ip), vehicle: carboxymethylcellulose (CMC)

Measured: T/C

C=CC[P+](Cc1ccccc1)(c1ccccc1)c1ccccc1
inactive: dose: 3.13 mg/kg/injection, schedule: Q01DX009 (ip), vehicle: saline with Tween-80 98 % of control | dose: 6.25 mg/kg/injection, schedule: Q01DX009 (ip), vehicle: saline with Tween-80 107 % of control | dose: 12.5 mg/kg/injection, schedule: Q01DX009 (ip), vehicle: saline with Tween-80 104 % of control and 115 % of control

O=[N+]([O-])c1cc(Br)cc2c1nc(NCCO)c1ccccc12
inactive: [1] 103 % of control | [2] 119 % of control | [3] 101 % of control

CC(CCC(=O)O)C1CCC2C3CCC4CC(OC=O)CCC4(C)C3CC(OC=O)C12C (configuration not stated)
inactive: [4] 101 % of control | [5] 92 % of control | [6] 96 % of control | [7] 105 % of control

C/C(=C\n1ccccc1=N)C(=O)c1ccc(F)cc1
inactive: [1] 96 % of control | [2] 98 % of control | [3] 100 % of control

N#CC(CC(=O)OCc1ccccc1)NC(=O)OCc1ccccc1 (configuration not stated)
inactive: [5] 92 % of control | [7] 89 % of control | [8] 97 % of control

O=C1C=CC(=O)N1Nc1ccccc1
inactive: [1] 100 % of control | [2] 102 % of control | [3] 97 % of control

O=C(O)c1c(Br)c(Br)c(Br)c(Br)c1C(=O)Nc1ccccc1F
inactive: [9] 93 % of control | [10] 96 % of control

Cc1c2c(cc3c1OCN(C1CCCCC1)C3)CN(C1CCCCC1)CO2
inactive: dose: 100.0 mg/kg/injection, schedule: Q01DX001 (ip), vehicle: saline 98 % of control | dose: 200.0 mg/kg/injection, schedule: Q01DX001 (ip), vehicle: saline 90 % of control

CCCCCCCCCCCCOc1ccccc1
inactive: [4] 97 % of control | [5] 92 % of control | [6] 88 % of control | [7] 109 % of control | [11] 92 % of control

N/N=C1/CCN2CCCc3cccc1c32
inactive: [6] 101 % of control | [11] 96 % of control

Sc1ccc2ccccc2c1
inactive: [9] 94 % of control | dose: 100.0 mg/kg/injection, schedule: Q04DX003 (ip), vehicle: saline 91 % of control | [10] 121 % of control | dose: 200.0 mg/kg/injection, schedule: Q04DX003 (ip), vehicle: saline 88 % of control | [12] 110 % of control | dose: 400.0 mg/kg/injection, schedule: Q04DX003 (ip), vehicle: saline 86 % of control

CCCCCCCC[N+](CC)(CC)CCOC(=O)C(C1CCCC1)C1CCCC1
inactive: dose: 0.25 mg/kg/injection, schedule: Q01DX015 (ip), vehicle: saline 91 % of control | dose: 0.5 mg/kg/injection, schedule: Q01DX015 (ip), vehicle: saline 91 % of control | dose: 1.0 mg/kg/injection, schedule: Q01DX015 (ip), vehicle: saline 88 % of control | dose: 1.25 mg/kg/injection, schedule: Q01DX009 (ip), vehicle: saline 95 % of control | dose: 2.0 mg/kg/injection, schedule: Q01DX015 (ip), vehicle: saline 86 % of control | dose: 2.5 mg/kg/injection, schedule: Q01DX009 (ip), vehicle: saline 102 % of control | dose: 2.5 mg/kg/injection, schedule: Q04DX003 (ip), vehicle: saline 94 % of control | dose: 5.0 mg/kg/injection, schedule: Q04DX003 (ip), vehicle: saline 94 % of control

O=C(NCC(O)CI)c1ccc([N+](=O)[O-])cc1 (configuration not stated)
inactive: [5] 104 % of control | [7] 102 % of control | [8] 89 % of control

CN(C)C(=S)Sc1ccc([N+](=O)[O-])cc1
inactive: dose: 75.0 mg/kg/injection, schedule: Q01DX001 (ip), vehicle: other 103 % of control | dose: 150.0 mg/kg/injection, schedule: Q01DX001 (ip), vehicle: other 96 % of control | dose: 300.0 mg/kg/injection, schedule: Q01DX001 (ip), vehicle: other 91 % of control

COc1ccc(OC)c(NC(=O)Oc2ccc(Cl)cc2C)c1
inactive: [1] 97 % of control | [2] 98 % of control | [3] 97 % of control

COc1ccc(C)nn1
inactive: dose: 100.0 mg/kg/injection, schedule: Q04DX002 (ip), vehicle: saline 106 % of control | dose: 200.0 mg/kg/injection, schedule: Q04DX002 (ip), vehicle: saline 106 % of control | dose: 400.0 mg/kg/injection, schedule: Q04DX002 (ip), vehicle: saline 122 % of control

COc1ccc(Nc2cc(=O)[nH]c(N)n2)cc1
inactive: dose: 100.0 mg/kg/injection, schedule: Q01DX Z (ip), vehicle: methylcellulose (MC) 112 % of control | dose: 200.0 mg/kg/injection, schedule: Q01DX Z (ip), vehicle: methylcellulose (MC) 108 % of control

CC(=O)CC(=O)Nc1cccc(C)c1C
inactive: [9] 95 % of control | [1] 97 % of control | [10] 88 % of control | [2] 106 % of control | [12] 88 % of control | [3] 105 % of control

CCS(=O)(=O)OCCCl
inactive: dose: 25.0 mg/kg/injection, schedule: Q01DX009 (ip), vehicle: Klucel (hydroxypropylcellulose) (HPC) 94 % of control | dose: 25.0 mg/kg/injection, schedule: Q04DX002 (ip), vehicle: Klucel (hydroxypropylcellulose) (HPC) 97 % of control | dose: 50.0 mg/kg/injection, schedule: Q01DX009 (ip), vehicle: Klucel (hydroxypropylcellulose) (HPC) 93 % of control | dose: 50.0 mg/kg/injection, schedule: Q04DX002 (ip), vehicle: Klucel (hydroxypropylcellulose) (HPC) 94 % of control | [13] 112 % of control | dose: 100.0 mg/kg/injection, schedule: Q04DX002 (ip), vehicle: Klucel (hydroxypropylcellulose) (HPC) 102 % of control and 90 % of control | [14] 116 % of control

O=S(=O)(OCC(F)(F)F)c1ccccc1
inactive: [9] 103 % of control | [1] 97 % of control | [10] 101 % of control | [2] 102 % of control | [3] 103 % of control

CC(=O)CC(C)=NCCN=C(C)CC(C)=O.[Cu]
inactive: dose: 6.0 mg/kg/injection, schedule: Q01DX009 (ip), vehicle: saline with Tween-80 97 % of control | dose: 12.0 mg/kg/injection, schedule: Q01DX009 (ip), vehicle: saline with Tween-80 98 % of control | dose: 12.5 mg/kg/injection, schedule: Q01DX001 (ip), vehicle: saline with Tween-80 94 % of control | dose: 12.5 mg/kg/injection, schedule: Q04DX003 (ip), vehicle: saline with Tween-80 93 % of control | dose: 25.0 mg/kg/injection, schedule: Q01DX001 (ip), vehicle: saline with Tween-80 91 % of control | dose: 25.0 mg/kg/injection, schedule: Q01DX009 (ip), vehicle: saline with Tween-80 101 % of control | dose: 25.0 mg/kg/injection, schedule: Q04DX003 (ip), vehicle: saline with Tween-80 100 % of control | dose: 50.0 mg/kg/injection, schedule: Q01DX001 (ip), vehicle: saline with Tween-80 91 % of control | dose: 50.0 mg/kg/injection, schedule: Q04DX003 (ip), vehicle: saline with Tween-80 88 % of control

O=C(/C(=C/c1cccc(Cl)c1)c1ccccc1)c1ccc(O)cc1
inactive: [13] 101 % of control | [14] 90 % of control
